# Test results: patent publication US7846434B2, “Materials and methods for improved immunoglycoproteins” (Trubion Pharmaceuticals, Inc., priority 2006, dated 2010)
# Experiments:
# [1] = tested on: CHO cells expressing TRU-016; assay: Growth and viability of CHO cells expressing TRU-016 cultured with carbohydrate modifier; assay type: cell-based, Chinese hamster; conditions: castanospermine up to 1000 μM, up to 144 hours
# Procedure: For shake flask runs, log phase host cells were seeded in shake flasks at 100,000 cells/ml with carbohydrate modifier at the concentration to be tested, and optionally with methotrexate (MTX) @ 50 nM.
# Cells were seeded at 3×10^6/mL in 1350 mL of Ex-Cell 302 culture media (SATC Biosciences; with added non-essential amino acids, pyrucate, L-glutamine, pen/strep, HT Supplement and insulin, all from Invitrogen) at t=0 and brought to 5 L total volume at T>=72 hours. The cells were incubated at 37° C. and 5% carbon dioxide and monitored for growth and viability daily starting at day 6-7. Supernatants were typically harvested at day 10-12 when cell viability dropped below 60%.
# Na-Azide was added to 0.02%, cells were removed by centrifugation and supernatant was filter sterilized through a 0.22 uM filter. Some assays described in other examples herein were performed on the supernatants as indicated, while other assays were performed on material that underwent further protein A purification. […] Cells were incubated at 37° C. and 5% carbon dioxide and monitored daily for growth and viability. […]
# [2] = tested on: human CD16 (low affinity polymorphism), FcγRIIIa; assay: Simultaneous binding of TRU-016 to CD37 (Daudi cells) and CD16:MuIgGFc fusion
# Procedure: TRU-016 produced as described in Example 8 was tested in the following assay, which simultaneously evaluates the ability of the TRU-016 binding domain to bind to a CD37 expressing target cell and the ability of the Fc portion of the TRU-016 SMIP to bind a fusion protein of human CD16 and murine IgG Fc.
# The target cell utilized is the Daudi (ATCC CRL-213) cell line. Daudi cells are a human B-lymphoblastoid cell line derived from a Burkitt's lymphoma and express high levels of CD37. The custom soluble CD16:MuIgGFc fusion protein is human CD16 (low affinity polymorphism) linked to a murine IgG Fc.
# The appropriate number of Daudi cells (350,000/well times the number of wells) is aliquoted and centrifuged at 250×g for 5 minutes at 15° C. The supernatant is removed. One percent cold paraformaldehyde is prepared by diluting the 4% stock from USB (USB US19943) 1:4 with FACS Buffer. FACS Buffer is prepared by adding 2% FBS (Gibco) to Dulbecco's PBS (Invitrogen) (v/v) and sterile filtering with a 0.22 μm filter. FACS Buffer is stored and used at 4° C. […]
# Each sample's bound fluorescence is measured on a BD FACSCalibur flow cytometry system and analyzed with Cell Quest Pro software (Becton Dickinson, ver 5.2). The GeoMean fluorescence intensity for each sample is plotted relative to the TRU-016 concentration. […]
smiles,measurement,setting,value
O[C@H]1[C@H](O)[C@@H](O)CN2CC[C@H](O)[C@H]12 [castanospermine],cell counts,[1],did not affect
same,percent cell viability,[1],did not affect
same,maximal improvement in TRU-016 glycovariant binding to CD16,"[2]; CHO-K1 produced, CS concentrations of 100 μM or greater",approximately 7 fold
same,"binding to CD16 (GeoMean fluorescence, D-parameter) of DG44 CHO produced TRU-016","[2]; relative to concentration of CS up to 400 μM, then levels off",dose-dependent binding response
